The structures appear in SMILES notation. Where only a bound is given, the exact number is not on record here.

For one test, the target named is T1, WEE1 kinase enzyme (Homo sapiens, UniProt P30291).
T1 construct: purchased Invitrogen, Life Technologies PR7373A
In words: WEE1 IC50 determination, LanthaScreen Terbium Labeled TR-FRET kinase assay. Format: biochemical. Conditions: WEE1 enzyme 1 nM, ATP 10 μM. How it is done: IC50 values of compounds against WEE1 kinase enzyme were determined by LanthaScreen™ Terbium Labeled TR-FRET assay. Kinase assays were performed in 1× kinase buffer (#PV6135, Invitrogen, Life Technologies Grand Island, N.Y.) where total reaction volume was 10 μL in low-volume 384-well plates (#4511, Corning). Serially diluted compounds (3-fold) were incubated with WEE1 Enzyme (1 nM) (#PR7373A, Invitrogen, Life Technologies Grand Island, N.Y.) for 10 min, and a mixture of ATP (10 μM) (#A1852, Sigma, St. Louis, Mo.) and fluorescent-PolyGT substrate (200 nM) (#PV3610, Invitrogen, Life Technologies, Grand Island, N.Y.) was added and incubated in dark at room temperature for 1 h. After 1 h, 10 μL stop solution containing Terbium labeled antibody (4 nM) (#PV3529, Invitrogen, Life Technologies Grand Island, N.Y.) and EDTA (#E5134, Sigma, St. Louis, Mo.) (20 mM) in TR-FRET dilution buffer (#PV3574, Invitrogen, Life Technologies, Grand Island, N.Y.) was added. Readings were taken in a Synergy Neo Plate reader (BioTek, Winooski, Vt.) at single excitation of 340 nm and dual emission at 495 nm and 520 nm respectively.
The % activity of test samples was calculated as (Sample−Min)*100/(Max−Min). [Max: DMSO control, complete reaction with enzyme & DMSO and Min: No enzyme & DMSO]. Percent inhibition (100−% activity) was fitted to the “four-parameter logistic model” in XLfit for determination of IC50 values.

The subject of the next test is A427 cell line. The test can be described thus: Cytotoxicity assay in A427 cell line (resazurin). The format is cell-based. As to conditions: Homo sapiens, A-427, A427 cells, 72 hr incubation, inhibition of proliferation. The procedure: A427 (HTB-53; ATCC), a lung epithelial cell line, was seeded in medium (MEM, 41090101; Gibco) at a cell count of 1500 cells per 100 μL per well in a 96 well edge plate (167425; ThermoFisher). Cells were allowed to grow at 37° C. for 24 hr in 5% CO2 environment (culture conditions) in a Nuaire incubator (humidified). Serially diluted test compounds (100 μL) within the desired testing concentration ranges were added to the culture plate and the cells were further incubated in culture conditions for 72 hr. The experiment was terminated at the designated incubation time by replacing the medium with 100 μL of 1 mM of resazurin (R7017; Sigma) prepared in culture medium, and the plates were further incubated in culture conditions for 4-6 hr. Fluorescence was recorded using a multimodal plate reader (Biotek Synergy Neo) at an excitation wavelength of 535 nm and emission wavelength of 590 nm to obtain relative fluorescence units. Data were analysed as follows: the background fluorescence (blank containing only medium) value was subtracted from each reading and normalized with the vehicle control (DMSO treated cells) to obtain percent survival/proliferation. Percent survival was subtracted from 100 to get the percent inhibition of proliferation which was used to calculate IC50 values. Potency of compounds in other cell lines (such as A549, As-Pc-1, Panc 10.05, A172, U-87 MG) may be determined in an analogous manner.

Test [1] concerns phospho-CDC2 (Tyr15) in A427 cells. The test can be described thus: Phospho-CDC2 (Tyr15) sandwich ELISA in A427 cells. The format is cell-based. As to conditions: Homo sapiens, A-427, treatment for a specified time (e.g., 24 hr). How it is done: Changes in the levels of phospho-CDCl2 following treatment of cells with test compounds were assessed by enzyme-linked immunosorbent assay (ELISA). A427 cells were plated in 6-well plates and cultured for 24 hr to approximately 80-90% confluency. Medium was replaced, and the cells were treated with the vehicle control or the test compound at several different concentrations. After incubation of treated cells in cell culture conditions for a specified time (e.g., 24 hr), cells were rinsed with ice-cold PBS and lysed in 1× cell lysis buffer containing protease inhibitors and phosphatase inhibitors. The cells were scraped from the plate with a cell scraper after a brief incubation on ice and transferred to a centrifuge tube, and then subjected to three freeze-thaw cycles in liquid nitrogen and a 37° C. water bath for further lysis. The lysates were centrifuged to pellet cell debris (using, for example, a 10 min centrifugation of 2000×g at 4° C.) and the supernatants transferred to fresh tubes on ice. The protein concentrations of the samples were estimated by the Bradford method or equivalent. The ELISA was carried out with the PathScan® Phospho-CDCl2 (Tyr15) Sandwich ELISA Kit (Cat. #7176, Cell Signaling Technology, Danvers, Mass.) according to the manufacturer's instructions.

T1 sequence (P30291 whole entry): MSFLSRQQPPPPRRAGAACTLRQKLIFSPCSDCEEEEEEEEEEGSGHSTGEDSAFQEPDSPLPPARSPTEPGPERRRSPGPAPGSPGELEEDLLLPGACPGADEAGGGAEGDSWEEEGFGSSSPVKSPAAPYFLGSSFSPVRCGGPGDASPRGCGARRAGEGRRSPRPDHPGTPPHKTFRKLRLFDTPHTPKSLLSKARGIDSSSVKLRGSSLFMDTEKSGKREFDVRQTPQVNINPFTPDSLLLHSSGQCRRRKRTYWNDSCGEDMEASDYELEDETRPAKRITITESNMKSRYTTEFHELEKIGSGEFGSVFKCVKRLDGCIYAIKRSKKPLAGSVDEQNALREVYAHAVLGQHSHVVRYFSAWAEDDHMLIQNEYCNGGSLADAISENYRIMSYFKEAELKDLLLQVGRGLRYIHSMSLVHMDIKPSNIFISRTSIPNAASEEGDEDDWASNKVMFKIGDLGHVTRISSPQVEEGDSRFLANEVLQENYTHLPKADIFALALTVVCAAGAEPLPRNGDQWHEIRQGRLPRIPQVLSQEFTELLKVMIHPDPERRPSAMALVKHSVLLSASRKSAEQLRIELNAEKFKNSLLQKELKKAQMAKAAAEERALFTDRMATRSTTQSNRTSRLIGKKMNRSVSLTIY

Consider `CC(C)n1c(=O)c2cnc(Nc3ccc4c(c3)CCNC4)nc2n1-c1nc(C(C)(C)C)cs1` [Compound No. 1.1, 1-(4-(tert-butyl)thiazol-2-yl)-2-isopropyl-6-((1,2,3,4-tetrahydroisoquinolin-6-yl)amino)-1,2-dihydro-3H-pyrazolo[3,4-d]pyrimidin-3-one], for which the IC50 at WEE1 kinase enzyme was 0.004 µM; in the test with A427 cell line, 0.53 µM.
For the molecule `CCn1c(=O)c2cnc(Nc3ccc4c(c3)CCNC4)nc2n1-c1cccc(C(C)(C)C#N)n1` [Compound No. 1.4, 2-(6-(2-ethyl-3-oxo-6-((1,2,3,4-tetrahydroisoquinolin-6-yl)amino)-2,3-dihydro-1H-pyrazolo[3,4-d]pyrimidin-1-yl)pyridin-2-yl)-2-methylpropanenitrile], the IC50 is 0.003 µM on WEE1 kinase enzyme and 0.32 µM in the test with A427 cell line.
Taken in the same sequence, the figures for `CC(C)(C#N)c1cccc(-n2c3nc(Nc4ccc5c(c4)CNCC5)ncc3c(=O)n2CC(F)(F)F)n1` [Compound No. 1.32, 2-methyl-2-(6-(3-oxo-6-(1,2,3,4-tetrahydroisoquinolin-7-ylamino)-2-(2,2,2-trifluoroethyl)-2,3-dihydro-1H-pyrazolo[3,4-d]pyrimidin-1-yl)pyridin-2-yl)propanenitrile] were 0.01 µM and 0.223 µM.
As to `CC(C)n1c(=O)c2cnc(Nc3ccc4c(c3)CNCC4)nc2n1-c1csc(N2CCOCC2)n1` [Compound No. 1.7, 2-isopropyl-1-(2-morpholinothiazol-4-yl)-6-((1,2,3,4-tetrahydroisoquinolin-7-yl)amino)-1,2-dihydro-3H-pyrazolo[3,4-d]pyrimidin-3-one], the half-inhibitory concentration (IC50) on WEE1 kinase enzyme was 0.057 µM; in the test with A427 cell line it was more than 30 µM.
The like results for `CCn1c(=O)c2cnc(Nc3ccc4c(c3)CNCC4)nc2n1-c1nc(C(C)(C)C)cs1` [Compound No. 1.8, 1-(4-(tert-butyl)thiazol-2-yl)-2-ethyl-6-((1,2,3,4-tetrahydroisoquinolin-7-yl)amino)-1,2-dihydro-3H-pyrazolo[3,4-d]pyrimidin-3-one] were, in that order, 0.004 µM and 0.993 µM.
`CC(C)(C)c1csc(-n2c3nc(Nc4ccc5c(c4)CNCC5)ncc3c(=O)n2C2CC2)n1` [Compound No. 1.6, 1-(4-(tert-butyl)thiazol-2-yl)-2-cyclopropyl-6-((1,2,3,4-tetrahydroisoquinolin-7-yl)amino)-1,2-dihydro-3H-pyrazolo[3,4-d]pyrimidin-3-one]: the figures for the IC50 (at WEE1 kinase enzyme; in the test with A427 cell line; in test [1]) were 0.006 µM, 1.15 µM and 1.12 µM, respectively.
With `CC(C)n1c(=O)c2cnc(Nc3ccc4c(c3)CNCC4)nc2n1-c1nc(C(C)(C)C)cs1` [Compound No. 1.2, 1-(4-(tert-butyl)thiazol-2-yl)-2-isopropyl-6-((1,2,3,4-tetrahydroisoquinolin-7-yl)amino)-1,2-dihydro-3H-pyrazolo[3,4-d]pyrimidin-3-one], the IC50 at WEE1 kinase enzyme is less than 0.0002 µM; in the test on A427 cell line, 0.585 µM.
As to `CC(C)(C)c1csc(-n2c3nc(Nc4ccc5c(c4)CCNC5)ncc3c(=O)n2CC(F)(F)F)n1` [Compound No. 1.11, 1-(4-(tert-butyl)thiazol-2-yl)-6-((1,2,3,4-tetrahydroisoquinolin-6-yl)amino)-2-(2,2,2-trifluoroethyl)-1,2-dihydro-3H-pyrazolo[3,4-d]pyrimidin-3-one], the half-inhibitory concentration (IC50) on WEE1 kinase enzyme was found to be 0.019 µM; in the test on A427 cell line, 1.58 µM.
Turning to `CCn1c(=O)c2cnc(Nc3ccc4c(c3)CNCC4)nc2n1-c1cccc(C(C)(C)C#N)n1` [Compound No. 1.223, 2-(6-(2-ethyl-3-oxo-6-(1,2,3,4-tetrahydroisoquinolin-7-ylamino)-2,3-dihydro-1H-pyrazolo[3,4-d]pyrimidin-1-yl)pyridin-2-yl)-2-methylpropanenitrile], the IC50 came to 0.007 µM on WEE1 kinase enzyme and 0.102 µM in the test on A427 cell line.
Turning to `CC(C)(C)c1csc(-n2c3nc(Nc4ccc5c(c4)CCNC5)ncc3c(=O)n2C2CC2)n1` [Compound No. 1.5, 1-(4-(tert-butyl)thiazol-2-yl)-2-cyclopropyl-6-((1,2,3,4-tetrahydroisoquinolin-6-yl)amino)-1,2-dihydro-3H-pyrazolo[3,4-d]pyrimidin-3-one], the IC50 at WEE1 kinase enzyme is 0.018 µM; in the test on A427 cell line, 1.27 µM.
In the case of `O=c1c2cnc(Nc3ccc4c(c3)CCNC4)nc2n(-c2cccc(C3(CO)CC3)n2)n1CC(F)(F)F` [1.225, 1-(6-(1-(hydroxymethyl)cyclopropyl)pyridin-2-yl)-6-(1,2,3,4-tetrahydroisoquinolin-6-ylamino)-2-(2,2,2-trifluoroethyl)-1H-pyrazolo[3,4-d]pyrimidin-3(2H)-one], the IC50 stood at 0.001 µM at WEE1 kinase enzyme and 0.375 µM with A427 cell line.
Consider `CC(C)n1c(=O)c2cnc(Nc3ccc4c(c3)CNCC4)nc2n1-c1cccc(C2(CO)CC2)n1` [1.224, 1-(6-(1-(hydroxymethyl)cyclopropyl)pyridin-2-yl)-2-isopropyl-6-((1,2,3,4-tetrahydroisoquinolin-7-yl)amino)-1,2-dihydro-3H-pyrazolo[3,4-d]pyrimidin-3-one], for which the IC50 came out at 0.004 µM at WEE1 kinase enzyme, 0.243 µM in the test on A427 cell line and 0.057 µM in test [1].
In the case of `CC(C)(CF)c1cccc(-n2c3nc(Nc4ccc5c(c4)CCNC5(C)C)ncc3c(=O)n2C2CC2)n1` [Compound No. 1.79, 2-cyclopropyl-6-((1,1-dimethyl-1,2,3,4-tetrahydroisoquinolin-6-yl)amino)-1-(6-(1-fluoro-2-methylpropan-2-yl)pyridin-2-yl)-1,2-dihydro-3H-pyrazolo[3,4-d]pyrimidin-3-one], the IC50 came out at 0.009 µM at WEE1 kinase enzyme and 0.97 µM in the test with A427 cell line.
For `CC(C)n1c(=O)c2cnc(Nc3ccc4c(c3)CCNC4)nc2n1-c1csc(N2CCOCC2)n1` [Compound No. 1.3, 2-isopropyl-1-(2-morpholinothiazol-4-yl)-6-((1,2,3,4-tetrahydroisoquinolin-6-yl)amino)-1,2-dihydro-3H-pyrazolo[3,4-d]pyrimidin-3-one], the figures for the IC50 at WEE1 kinase enzyme and in the test with A427 cell line were 0.008 µM and more than 30 µM, respectively.
For the molecule `CC(C)(C#N)c1cccc(-n2c3nc(Nc4ccc5c(c4)CCNC5(C)C)ncc3c(=O)n2CC(F)(F)F)n1` [Compound No. 1.33, 2-(6-(6-(1,1-dimethyl-1,2,3,4-tetrahydroisoquinolin-6-ylamino)-3-oxo-2-(2,2,2-trifluoroethyl)-2,3-dihydro-1H-pyrazolo[3,4-d]pyrimidin-1-yl)pyridin-2-yl)-2-methylpropanenitrile], the figures for the IC50 at WEE1 kinase enzyme and with A427 cell line were 0.005 µM and 0.513 µM, respectively.
Consider `CCn1c(=O)c2cnc(Nc3ccc4c(c3)CCNC4)nc2n1-c1nc(C(C)(C)C)cs1` [Compound No. 1.10, 1-(4-(tert-butyl)thiazol-2-yl)-2-ethyl-6-((1,2,3,4-tetrahydroisoquinolin-6-yl)amino)-1,2-dihydro-3H-pyrazolo[3,4-d]pyrimidin-3-one], for which the half-maximal inhibitory concentration (IC50) was 0.007 µM at WEE1 kinase enzyme and 1.49 µM with A427 cell line.
Take `CC(C)(C)c1csc(-n2c3nc(Nc4ccc5c(c4)CNCC5)ncc3c(=O)n2CC(F)(F)F)n1` [Compound No. 1.12, 1-(4-(tert-butyl)thiazol-2-yl)-6-((1,2,3,4-tetrahydroisoquinolin-7-yl)amino)-2-(2,2,2-trifluoroethyl)-1,2-dihydro-3H-pyrazolo[3,4-d]pyrimidin-3-one]: the IC50 is 0.003 µM at WEE1 kinase enzyme and 2.37 µM with A427 cell line.

Values taken from patent US20220220115A1, “HETEROCYCLIC COMPOUNDS AND USES THEREOF” (Nuvation Bio Inc., priority 2019, published 2022).
